Measured values: US20230096028A1, “BICYCLIC HETEROCYCLYL COMPOUNDS AND USES THEREOF” (Revolution Medicines, Inc., priority 2019, published 2023)
Where two headings read alike, the source gives them in different places.

Legend:
[1] = biological target: T1, SOS1 catalytic domain (residues 564-1049) (Homo sapiens, UniProt Q07889); experiment: Mode of Action Assay: inhibition of SOS1 nucleotide exchange activity (SOS1 TR-FRET IC50 Assay)
T1 sequence (Q07889 564-1049): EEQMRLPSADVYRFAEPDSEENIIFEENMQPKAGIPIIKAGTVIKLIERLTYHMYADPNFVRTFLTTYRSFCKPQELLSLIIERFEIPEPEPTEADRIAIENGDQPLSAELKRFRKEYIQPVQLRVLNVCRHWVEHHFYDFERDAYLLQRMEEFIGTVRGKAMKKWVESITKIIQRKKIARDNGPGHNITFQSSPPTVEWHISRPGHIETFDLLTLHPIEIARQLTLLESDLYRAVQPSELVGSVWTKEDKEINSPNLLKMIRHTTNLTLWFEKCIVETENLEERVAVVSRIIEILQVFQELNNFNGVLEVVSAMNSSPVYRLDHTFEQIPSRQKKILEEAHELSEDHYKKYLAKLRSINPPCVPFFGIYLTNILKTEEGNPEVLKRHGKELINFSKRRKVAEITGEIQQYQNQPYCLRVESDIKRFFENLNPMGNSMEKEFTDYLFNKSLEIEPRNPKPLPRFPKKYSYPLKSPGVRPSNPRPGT

[2] = biological target: T1, SOS1 catalytic domain (residues 564-1049); experiment: Potency Assay: binding affinity to SOS1 using Surface Plasmon Resonance (SPR); design: SOS1 catalytic domain (residues 564-1049) immobilized on a sensor chip; conditions: immobilized SOS1 catalytic domain (residues 564-1049), read-out: SOS1 SPR Equilibrium Kd
Method in brief: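 Kd was obtained by plotting binding response, taken just before association ended, versus compound concentration on a Biacore 8K. Compounds flowed at 50 μL/min over streptavidin-captured avi-SOS1 catalytic domain (~6000 RU), followed by buffer dissociation; HEPES 0.01 M/NaCl 0.15 M/0.05% P20 buffer, double-referenced.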

[3] = tested on: PC-9 cells (EGFR Ex19Del); experiment: Potency Assay: pERK (SOS1 pERK IC50 Assay, AlphaLISA SureFire Ultra p-ERK1/2); type: cell-based; conditions: Homo sapiens, read-out: SOS1 pERK IC50
Method in brief: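 Cellular pERK1/2 by AlphaLISA SureFire Ultra after 1 h compound exposure (37° C., highest concentration 10 μM, 3-fold steps, duplicates) of EGFR Ex19Del PC-9 cells seeded the day before. A 4-parameter fit of signal versus log concentration gives IC50.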

[4] = PC-9 cells (EGFR Ex19Del), 1 hour incubation, AlphaLISA p-ERK1/2

Row | Compound | IC50 [1] | Kd [2] | IC50 [3, 4] | IC50 ([3]; PC-9, 1 h)
1 | C[C@@H](Nc1nc(Cl)nc2c1CN(C(=O)N1CCOCC1)C2)c1cccc(C(F)(F)C2CNCCO2)c1 (stereo partly drawn) [Example 484, 2-chloro-N-[(1R)-1-{3-[difluoro(morpholin-2-yl)methyl]phenyl}ethyl]-6-(morpholine-4-carbonyl)-5H,6H,7H-pyrrolo[3,4-d]pyrimidin-4-amine] | < 1000 nM | < 400 nM |  | < 1000 nM
2 | C[C@@H](Nc1nc(Cl)nc2c1CN(C(=O)N1CC3CCC(C1)N3C1COC1)C2)c1cccc(C(F)F)c1F [Example 423] | < 1000 nM | < 400 nM | < 1000 nM | 
3 | C[C@@H](Nc1ncnc2c1CN(C(=O)N1CCOCC1)C2)c1cccc(C(F)F)c1F [Example 389] | < 1000 nM | < 400 nM | > 1000 nM | 
4 | COc1cc(C(=O)N2Cc3nc(Cl)nc(N[C@H](C)c4cc(N)cc(C(F)(F)F)c4)c3C2)ncn1 [Example 62] | > 1000 nM | < 400 nM | < 1000 nM | 
5 | C[C@@H](Nc1nc(Cl)nc2c1CN(C(=O)c1ccccn1)C2)c1cc(N)cc(C(F)(F)F)c1 [Example 65] | < 1000 nM | > 400 nM | < 1000 nM | 
6 | C[C@@H](Nc1nc(Cl)nc2c1CN(S(=O)(=O)C1COC1)CC2)c1cc(N)cc(C(F)(F)F)c1 [Example 453] | < 1000 nM | < 400 nM | < 1000 nM | 
7 | C[C@@H](Nc1nc(Cl)nc2c1C[C@H](N1CCOCC1)CC2)c1cc(N)cc(C(F)(F)F)c1 (single isomer, unassigned) [Example 169] | < 1000 nM | < 400 nM | < 1000 nM | 
8 | COc1ccc(CC(=O)N2Cc3nc(Cl)nc(N[C@H](C)c4cc(N)cc(C(F)(F)F)c4)c3C2)cc1OC [Example 102] | > 1000 nM | > 400 nM | < 1000 nM | 
9 | C[C@@H](Nc1nc(Cl)nc2c1CN(C(=O)N1CCOc3ncccc31)C2)c1cc(N)cc(C(F)(F)F)c1 [Example 365] | < 1000 nM | < 400 nM | < 1000 nM | 
10 | COC1(C(=O)N2Cc3nc(Cl)nc(N[C@H](C)c4cccc(C(F)(F)CN)c4F)c3C2)CCOCC1 [Example 526, N-[(1R)-1-[3-(2-amino-1,1-difluoroethyl)-2-fluorophenyl]ethyl]-2-chloro-6-(4-methoxyoxane-4-carbonyl)-5H,6H,7H-pyrrolo[3,4-d]pyrimidin-4-amine] | < 1000 nM | < 400 nM | < 1000 nM | 
11 | C[C@@H](Nc1nc(CN2CCOCC2)nc2c1CN(C(=O)N1CCOCC1)C2)c1cccc(C(F)F)c1F [Example 539] | < 1000 nM | > 400 nM | > 1000 nM | 
12 | C[C@@H](Nc1nc(Cl)nc2c1CN(C(=O)C(C)(C)C)C2)c1cc(N)cc(C(F)(F)F)c1 [Example 274] | < 1000 nM | < 400 nM | < 1000 nM | 
13 | C[C@@H](Nc1nc(Cl)nc2c1CN(C(=O)N1C3CCC1COC3)C2)c1cccc(C(F)F)c1F [Example 396] | < 1000 nM | < 400 nM | < 1000 nM | 
14 | C[C@@H](Nc1nc(Cl)nc2c1CN(S(=O)(=O)N1CCNCC1)CC2)c1cc(N)cc(C(F)(F)F)c1 [Example 183] | < 1000 nM | < 400 nM | < 1000 nM | 
15 | C[C@@H](Nc1nc(Cl)nc2c1CN(C(=O)C1(F)CNC1)C2)c1cc(N)cc(C(F)(F)F)c1 [Example 263] | < 1000 nM | < 400 nM | < 1000 nM | 
16 | C[C@@H](Nc1nc(Cl)nc2c1CN(C(=O)N1CCNCC1)C2)c1cccc(C(F)(F)F)c1 [Example 364] | < 1000 nM | < 400 nM | < 1000 nM | 
17 | Cc1nc2c(c(N[C@H](C)c3cc(N)cc(C(F)(F)F)c3)n1)CC(C(=O)N1CCOCC1)C2 (stereo partly drawn) [Example 45, [4-[[(1R)-1-[3-amino-5-(trifluoromethyl)phenyl]ethyl]amino]-2-methyl-6,7-dihydro-5H-cyclopenta[d]pyrimidin-6-yl]-morpholino-methanone] | < 1000 nM | > 400 nM | < 1000 nM | 
18 | C[C@@H](Nc1nc(Cl)nc2c1CN(C(=O)C1(C#N)CC1)CC2)c1cc(N)cc(C(F)(F)F)c1 [Example 194] | > 1000 nM | > 400 nM | < 1000 nM | 
19 | C[C@@H](Nc1nc(Cl)nc2c1CN(C(=O)c1cc(N3CCOCC3)ccn1)C2)c1cc(N)cc(C(F)(F)F)c1 [Example 68] | < 1000 nM | < 400 nM | < 1000 nM | 
20 | C[C@@H](Nc1nc(Cl)nc2c1CN(C(=O)N1CCNc3ccncc31)C2)c1cccc(C(F)(F)F)c1 [Example 375] | < 1000 nM | < 400 nM | < 1000 nM | 

More lines, main results first:

Row | IC50 [1] | Kd [2] | IC50 [3, 4] | Compound | IC50 ([3]; PC-9, 1 h)
21 | < 1000 nM | < 400 nM | < 1000 nM | COC1(C(=O)N2Cc3nc(Cl)nc(N[C@H](C)c4cccc(C(F)F)c4F)c3C2)CCN(CCF)CC1 [Example 343] | 
22 | < 1000 nM | < 400 nM | < 1000 nM | C[C@@H](Nc1nc(Cl)nc2c1CN(C(=O)N1CCOCC1)C2)c1cccc(C(F)(F)C(C)(C)O)c1F [Example 493] | 
23 | < 1000 nM | < 400 nM | < 1000 nM | C[C@@H](Nc1nc(Cl)nc2c1CN(C(=O)N1CC3CC1CN3C1COC1)C2)c1cccc(C(F)F)c1F (stereo partly drawn) [Example 421] | 
24 | < 1000 nM | < 400 nM | < 1000 nM | C[C@@H](Nc1nc(Cl)nc2c1CN(C(=O)N1CCOC(F)(F)C1)C2)c1cccc(C(F)F)c1F [Example 411] | 
25 | < 1000 nM | < 400 nM | > 1000 nM | C[C@@H](Nc1nc(Cl)nc2c1CN(C(=O)N1CCOCC1)C2)c1cccc(CF)c1F [Example 527, 2-chloro-N-[(1R)-1-[2-fluoro-3-(fluoromethyl)phenyl]ethyl]-6-(morpholine-4-carbonyl)-5H,6H,7H-pyrrolo[3,4-d]pyrimidin-4-amine] | 
26 | < 1000 nM | < 400 nM | < 1000 nM | C[C@@H](Nc1nc(Cl)nc2c1CN(C(=O)C1(F)CN(C)C1)C2)c1cccc(C(F)F)c1F [Example 408] | 
27 | < 1000 nM | < 400 nM | < 1000 nM | C[C@@H]1CN(C(=O)N2Cc3nc(Cl)nc(N[C@H](C)c4cccc(C(F)F)c4F)c3C2)C[C@H](C)N1C [Example 397] | 
28 | < 1000 nM | < 400 nM | < 1000 nM | C[C@@H](Nc1nc(Cl)nc2c1CN(C(=O)N1C[C@H]3C[C@@H]1CN3C)C2)c1cccc(C(F)F)c1F [Example 416] | 
29 | < 1000 nM | < 400 nM | < 1000 nM | C[C@@H](Nc1nc(Cl)nc2c1CN(C(=O)N1C[C@H]3CN(C)C[C@H]3C1)C2)c1cccc(C(F)F)c1F [Example 414] | 
30 | < 1000 nM | > 400 nM | > 1000 nM | CC(=O)NC1(C(=O)N2Cc3nc(Cl)nc(N[C@H](C)c4cccc(C(F)F)c4F)c3C2)CCCCC1 [Example 332] | 
31 | < 1000 nM | < 400 nM | < 1000 nM | COC1(C(=O)N2Cc3nc(Cl)nc(N[C@H](C)c4cccc(C(F)F)c4F)c3C2)CCN(C)CC1 [Example 323] | 
32 | < 1000 nM | < 400 nM | < 1000 nM | C[C@@H](Nc1nc(Cl)nc2c1CN(C(=O)C1(C)CN(CCF)C1)C2)c1cccc(C(F)F)c1F [Example 342] | 
33 | < 1000 nM | < 400 nM | < 1000 nM | C[C@@H](Nc1nc(Cl)nc2c1CN(C(=O)C1(F)CCN(C)CC1)C2)c1cccc(C(F)F)c1F [Example 326] | 
34 | < 1000 nM | < 400 nM | < 1000 nM | C[C@@H](Nc1nc(Cl)nc2c1CN(C(=O)N1CCNC(=O)C1)C2)c1cccc(C(F)F)c1F [Example 403] | 
